According to patent US20240174675A1, “SMALL MOLECULE REGULATORS OF ALVEOLAR TYPE 2 CELL PROLIFERATION FOR THE TREATMENT OF PULMONARY DISEASES” (THE SCRIPPS RESEARCH INSTITUTE, priority 2021, published 2024):
Counter-ions that a name gives are not always drawn.

biological target: T1, Human DPP4 (Homo sapiens, UniProt P27487); test: DPP4 activity assay (DPP4 Activity Assay Kit, fluorescent substrate); format: biochemical; conditions: Human DPP4; read-out: DPP4 inhibition IC50 [nM])
T1 construct: purchased Sigma-Aldrich MAK088
Procedure: DPP4 activity assay. Human DPP4 activity assay data were obtained using a DPP4 Activity Assay Kit (Sigma-Aldrich, MAK088) according to the manufacturer's instructions. Briefly, 10 μL of DPP4 Assay Buffer were transferred per well in low volume 384-well plates before transferring 10 μL of test compound dissolved in DPP4 assay buffer. To each well was added 5 μL of Master Reaction Mix containing a fluorescent substrate that becomes fluorescent upon cleavage by the enzyme. Fluorescence intensity measurements were recorded at 1-minute time intervals over the course of 20 minutes using an Envision Multimode Plate Reader (PerkinElmer).

T1 sequence (P27487 whole entry): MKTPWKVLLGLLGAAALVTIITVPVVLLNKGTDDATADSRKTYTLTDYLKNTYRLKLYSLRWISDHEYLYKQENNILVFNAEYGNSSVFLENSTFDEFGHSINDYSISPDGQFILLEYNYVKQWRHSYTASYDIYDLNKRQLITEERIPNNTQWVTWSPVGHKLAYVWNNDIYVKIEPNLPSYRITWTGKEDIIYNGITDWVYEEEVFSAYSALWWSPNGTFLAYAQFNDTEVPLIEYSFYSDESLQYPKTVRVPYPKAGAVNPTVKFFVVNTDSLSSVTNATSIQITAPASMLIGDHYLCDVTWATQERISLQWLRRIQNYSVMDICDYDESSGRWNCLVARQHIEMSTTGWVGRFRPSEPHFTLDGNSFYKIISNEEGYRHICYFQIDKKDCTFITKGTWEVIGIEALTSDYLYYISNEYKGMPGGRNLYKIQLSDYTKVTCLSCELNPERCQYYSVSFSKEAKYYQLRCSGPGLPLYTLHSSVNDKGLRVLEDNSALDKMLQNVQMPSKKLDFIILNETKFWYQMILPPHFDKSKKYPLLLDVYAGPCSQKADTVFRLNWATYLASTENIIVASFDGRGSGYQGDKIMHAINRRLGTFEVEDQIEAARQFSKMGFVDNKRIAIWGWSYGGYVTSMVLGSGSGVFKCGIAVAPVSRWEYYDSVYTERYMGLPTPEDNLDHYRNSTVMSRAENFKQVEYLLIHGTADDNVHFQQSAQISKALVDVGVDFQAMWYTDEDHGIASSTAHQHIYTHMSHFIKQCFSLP

SMILES | IC50
CCN(Cc1cn(CCOCCOCCOC(=O)c2nc(C(F)(F)F)n3c2CN(C(=O)C[C@H](N)Cc2cc(F)c(F)cc2F)CC3)nn1)C[C@H](O)[C@@H](O)[C@H](O)[C@H](O)CO [Compound 45, 2-(2-(2-(4-((ethyl((2S,3R,4R,5R)-2,3,4,5,6-pentahydroxyhexyl)amino)methyl)-1H-1,2,3-triazol-1-yl)ethoxy)ethoxy)ethyl 7-((R)-3-amino-4-(2,4,5-trifluorophenyl)butanoyl)-3-(trifluoromethyl)-5,6,7,8-tetrahydroimidazo[1,5-a]pyrazine-1-carboxylate] | 0.55 nM
N#C[C@@H]1CCCN1C(=O)CN[C@]12CC3CC(C1)C[C@@](OCCO)(C3)C2 (stereo in doubt) [Compound 5, (2S)-1-(((1S,3R,5S)-3-(2-hydroxyethoxy)adamantan-1-yl)glycyl)pyrrolidine-2-carbonitrile] | 2.3 nM
[N-]=[N+]=NCCOCCOCCNC(=O)c1nc(C(F)(F)F)n2c1CN(C(=O)C[C@H](N)Cc1cc(F)c(F)cc1F)CC2 [Compound 43] | 1 nM
CCCCCCCC(=O)OC12CC3C[C@@H](CC(NCC(=O)N4CCC[C@H]4C#N)(C3)C1)C2 (stereo in doubt) [Compound 24] | 238 nM
CC#CCn1c(N2CCC[C@@H](N)C2)nc2c1c(=O)n(Cc1nc(F)ccc1C(=O)OCCCCCC)c(=O)n2C [Compound 30, hexyl (R)-2-((8-(3-aminopiperidin-1-yl)-7-(but-2-yn-1-yl)-3-methyl-2,6-dioxo-2,3,6,7-tetrahydro-1H-purin-1-yl)methyl)-6-fluoronicotinate] | > 1000 nM
CC#CCn1c(N2CCC[C@@H](N)C2)nc2c1c(=O)n(Cc1nc(NCCCCCCCn3cc(CN(C[C@H](O)[C@@H](O)[C@H](O)[C@H](O)CO)C[C@H](O)[C@@H](O)[C@H](O)[C@H](O)CO)nn3)ccc1C(=O)O)c(=O)n2C [Compound 35, 2-((8-((R)-3-aminopiperidin-1-yl)-7-(but-2-yn-1-yl)-3-methyl-2,6-dioxo-2,3,6,7-tetrahydro-1H-purin-1-yl)methyl)-6-((7-(4-((bis((2S,3R,4R,5R)-2,3,4,5,6-pentahydroxyhexyl)amino)methyl)-1H-1,2,3-triazol-1-yl)heptyl)amino)nicotinic acid] | 34.3 nM
CCCCCCCSC12CC3C[C@@H](CC(NCC(=O)N4CCC[C@H]4C#N)(C3)C1)C2 [Compound 2, (2S)-1-((3-(heptylthio)adamantan-1-yl)glycyl)pyrrolidine-2-carbonitrile] | 26 nM
N[C@@H](CC(=O)N1CCn2c(C(F)(F)F)nc(C(=O)OCCOCCN3CCOCC3)c2C1)Cc1cc(F)c(F)cc1F [Compound 52, (R)-4-(1-((2-(2-morpholinoethoxy)ethoxy)carbonyl)-3-(trifluoromethyl)-5,6-dihydroimidazo[1,5-a]pyrazin-7(8H)-yl)-4-oxo-1-(2,4,5-trifluorophenyl)butan-2-aminium (2R,3R)-3-carboxy-2,3-dihydroxypropanoate] | 0.54 nM
CC#CCn1c(N2CCC[C@@H](N)C2)nc2c1c(=O)n(Cc1nc(NCCCCCCCn3cc(CN(C[C@H](O)[C@@H](O)[C@H](O)[C@H](O)CO)C[C@H](O)[C@@H](O)[C@H](O)[C@H](O)CO)nn3)ccc1C(=O)OC)c(=O)n2C [Compound 34, methyl 2-((8-((R)-3-aminopiperidin-1-yl)-7-(but-2-yn-1-yl)-3-methyl-2,6-dioxo-2,3,6,7-tetrahydro-1H-purin-1-yl)methyl)-6-((7-(4-((bis((2S,3R,4R,5R)-2,3,4,5,6-pentahydroxyhexyl)amino)methyl)-1H-1,2,3-triazol-1-yl)heptyl)amino)nicotinate] | 41 nM
CC#CCn1c(N2CCC[C@@H](N)C2)nc2c1c(=O)n(Cc1nc(NC)ccc1C(=O)OCCCCCC)c(=O)n2C [Compound 32, hexyl (R)-2-((8-(3-aminopiperidin-1-yl)-7-(but-2-yn-1-yl)-3-methyl-2,6-dioxo-2,3,6,7-tetrahydro-1H-purin-1-yl)methyl)-6-(methylamino)nicotinate] | > 1000 nM
N[C@@H](CC(=O)N1CCn2c(C(F)(F)F)nc(C(=O)NCCOCCN3CCOCC3)c2C1)Cc1cc(F)c(F)cc1F [Compound 50, (R)-4-(1-((2-(2-morpholinoethoxy)ethyl)carbamoyl)-3-(trifluoromethyl)-5,6-dihydroimidazo[1,5-a]pyrazin-7(8H)-yl)-4-oxo-1-(2,4,5-trifluorophenyl)butan-2-aminium (2R,3R)-3-carboxy-2,3-dihydroxypropanoate] | 0.54 nM
CC#CCn1c(N2CCC[C@@H](N)C2)nc2c1c(=O)n(Cc1ccc(C(=O)O)cc1)c(=O)n2C [Compound 28] | 10.5 nM
N[C@@H](CC(=O)N1CCn2c(C(F)(F)F)nc(C(=O)OCCCCN3CCOCC3)c2C1)Cc1cc(F)c(F)cc1F [Compound 54, (R)-4-(1-((4-morpholinobutoxy)carbonyl)-3-(trifluoromethyl)-5,6-dihydroimidazo[1,5-a]pyrazin-7(8H)-yl)-4-oxo-1-(2,4,5-trifluorophenyl)butan-2-aminium (2R,3R)-3-carboxy-2,3-dihydroxypropanoate] | 0.5 nM
CC#CCn1c(N2CCC[C@@H](N)C2)nc2c1c(=O)n(Cc1nc(F)ccc1C(=O)O)c(=O)n2C [Compound 29] | 7.1 nM
CCCCCCCC(=O)OCOC12CC3CC(CC(NCC(=O)N4CCC[C@H]4C#N)(C3)C1)C2 [Compound 7, ((3-((2-((S)-2-cyanopyrrolidin-1-yl)-2-oxoethyl)amino)adamantan-1-yl)oxy)methyl Octanoate] | 32 nM
N[C@@H](CC(=O)N1CCn2c(C(F)(F)F)nc(C(=O)OCCCN3CCOCC3)c2C1)Cc1cc(F)c(F)cc1F [Compound 51, (R)-4-(1-((3-morpholinopropoxy)carbonyl)-3-(trifluoromethyl)-5,6-dihydroimidazo[1,5-a]pyrazin-7(8H)-yl)-4-oxo-1-(2,4,5-trifluorophenyl)butan-2-aminium (2R,3R)-3-carboxy-2,3-dihydroxypropanoate] | 0.18 nM

More lines, now with the values ahead:

IC50 | SMILES
7.7 nM | CCCCCCN(Cc1cn(CCOCCOCCOC23CC4CC(C2)CC([C@H](N)C(=O)N2[C@H](C#N)C[C@@H]5C[C@@H]52)(C4)C3)nn1)C[C@H](O)[C@@H](O)[C@H](O)[C@H](O)CO [Compound 21]
12 nM | N#C[C@@H]1C[C@@H]2C[C@@H]2N1C(=O)[C@@H](N)C12CC3C[C@H](CC(OCCOC(=O)CNc4ccc(CN(CCO)CCO)cc4)(C3)C1)C2 [Compound 18]
47.8 nM | CCCCCCN(Cc1cn(CCOCCOC23CC4C[C@H](C2)CC([C@H](N)C(=O)N2[C@H](C#N)C[C@@H]5C[C@@H]52)(C4)C3)nn1)C[C@H](O)[C@@H](O)[C@H](O)[C@H](O)CO [Compound 20]
11 nM | CCCCCCN(CCc1ccc(OCCNC(=O)OCCSC23CC4C[C@@H](CC(NCC(=O)N5CCC[C@H]5C#N)(C4)C2)C3)cc1)C[C@H](O)[C@@H](O)[C@H](O)[C@H](O)CO (stereo in doubt) [Compound 4, 2-(((1R,3S,5S)-3-((2-((S)-2-cyanopyrrolidin-1-yl)-2-oxoethyl)amino)adamantan-1-yl)thio)ethyl (2-(4-(2-(hexyl((2S,3R,4R,5R)-2,3,4,5,6-pentahydroxyhexyl)amino)ethyl)phenoxy)ethyl)carbamate]
6.6 nM | N#C[C@@H]1C[C@@H]2C[C@@H]2N1C(=O)[C@@H](N)[C@]12CC3CC(C[C@](OCCOC(=O)NCc4ccc(CN(C[C@@H](O)[C@H](O)[C@@H](O)[C@@H](O)CO)C[C@@H](O)[C@H](O)[C@@H](O)[C@@H](O)CO)cc4)(C3)C1)C2 (stereo in doubt) [Compound 22, 2-(((1R,3S,5S)-3-((S)-1-amino-2-((1S,3S,5S)-3-cyano-2-azabicyclo[3.1.0]hexan-2-yl)-2-oxoethyl)adamantan-1-yl)oxy)ethyl (4-((bis((2S,3R,4R,5R)-2,3,4,5,6-pentahydroxyhexyl)amino)methyl)benzyl)carbamate trifluoracetate salt]
14.2 nM | CCCCCCN(Cc1cn(CCOCCOCCOC23CC4CC(CC(NCC(=O)N5CCC[C@H]5C#N)(C4)C2)C3)nn1)C[C@H](O)[C@@H](O)[C@H](O)[C@H](O)CO [Compound 8, (2S)-1-(((1S,3R,5S)-3-(2-(2-(2-(4-((hexyl((2S,3R,4R,5R)-2,3,4,5,6-pentahydroxyhexyl)amino)methyl)-1H-1,2,3-triazol-1-yl)ethoxy)ethoxy)ethoxy)adamantan-1-yl)glycyl)pyrrolidine-2-carbonitrile]
> 10000 nM | CC#CCn1c(N2CCC[C@@H](N)C2)nc2c1c(=O)n(Cc1ccc(Cl)cc1C(=O)OCCOCCn1cc(CN(CCCCCC)C[C@H](O)[C@@H](O)[C@H](O)[C@H](O)CO)nn1)c(=O)n2C [Compound 41, 2-(2-(4-((hexyl(2,3,4,5,6-pentahydroxyhexyl)amino)methyl)-1H-1,2,3-triazol-1-yl)ethoxy)ethyl 2-((8-((R)-3-aminopiperidin-1-yl)-7-(but-2-yn-1-yl)-3-methyl-2,6-dioxo-2,3,6,7-tetrahydro-1H-purin-1-yl)methyl)-5-chlorobenzoate]
7.9 nM | N#C[C@@H]1C[C@@H]2C[C@@H]2N1C(=O)[C@@H](N)[C@]12CC3C[C@H](C[C@](OCCO)(C3)C1)C2 [Compound 16, (1S,3S,5S)-2-((2S)-2-amino-2-((1S,3R,5S)-3-(2-hydroxyethoxy)adamantan-1-yl)acetyl)-2-azabicyclo[3.1.0]hexane-3-carbonitrile]
7.9 nM | CCN(Cc1ccc(CNC(=O)OCCOCCO[C@@]23CC4C[C@@H](C[C@@](NCC(=O)N5CCC[C@H]5C#N)(C4)C2)C3)cc1)C[C@H](O)[C@@H](O)[C@H](O)[C@H](O)CO [Compound 12, 2-(2-(((1R,3S,5S)-3-((2-((S)-2-cyanopyrrolidin-1-yl)-2-oxoethyl)amino)adamantan-1-yl)oxy)ethoxy)ethyl (4-((ethyl((2S,3R,4R,5R)-2,3,4,5,6-pentahydroxyhexyl)amino)methyl)benzyl)carbamate]
